In EP1985629A1, “Pro-apoptotic molecules and therapeutic uses thereof” (UNIVERSITA DEGLI STUDI DI GENOVA, priority 2007, dated 2008):
Marks after values point to notes of the source that are not given here. Where a SMILES comes first, the peptide text is derived from it. [ ]: non-standard residue; d: D form. Aib = CC(C)(N)C(=O)O

Legend:
Assay type in all cases: cell-based, human
tumour cell lines = assay: DNA flow cytometry (PI/SSC) for apoptosis in tumour cell lines; details: 4 days
Procedure: • Figure 1 Fluorescence Anisotropy Assay. Average anisotropy values: (open square) binding assay for increasing concentrations of Bcl-XL at a fixed concentration of fluorescent Bak-BH3 peptide. […] The error bars represent standard deviations observed from triplicate experiments. • Figure 2 072RB: cell growth effects. Panel A: Cell growth of U937 cell line treated for four days every 24 h at a 1 µM 072RB concentration and every 48 h at 3, 5, 10 and 30 µM 072RB concentrations. U937 controls at day 4, cell number: 350,000 ±50,000. Number of cells seeded at day 0: 20,000. Arrows indicate treatment time. […] All cells were counted in a Burker chamber and values are expressed as percentage of the untreated control cell number. Only living cells identified by trypan blue exclusion staining were counted. […] Flow cytometry measurements of DNA content (evaluated by propidium iodide (PI) fluorescence intensity) and physical cell side-scattering (evaluated by SSC) in U937 cells treated with Int and 072RB at 10 µM, twice each 48h. […] Three main cell populations can be observed in the bivariate PI/SSC plots, one with low SSC and normal DNA content (that accounts for "live" cells in culture), another with high SSC and normal DNA content (cells undergoing "early stage of apoptosis") and another one with lower PI fluorescence (cells at "late stage of apoptosis" and debris). […]

[1] = test system: ALL: acute lymphoid leukaemia; assay: Ex vivo bone marrow cells, flow cytometry DNA/SSC analysis of apoptosis; details: analysed day 4
Procedure: (§1) For experiments with primary cells of acute lymphoblastic leukaemia (ALL), […] Acute Myeloid Leukaemia (AML), fresh samples of bone marrow aspirates were from patients who had at least 80% blasts among their mononuclear cells. Normal hematopoietic cells (NBM) were obtained from healthy volunteers. Mononuclear cells were isolated from the samples by Ficoll density-gradient centrifugation. Primary cells were cultured as above. The collection of human specimens was performed after informed consent of the patient during diagnostic procedure. Viability was determined by Facs analysis: PI emission fluorescence.
(§2) Cells were harvested and incubated with 30 µg/ml PI (Sigma Chemical Co.) and 0.5 mg/ml RNase for 30 min at room temperature and in the dark. Flow cytometric measurements of Forward Scatter (FSC) and Side Scatter (SSC) of light emitted from the excitation laser, and of PI emission fluorescence, were performed on a FACSCalibur (Becton Dickinson) flow cytometer. At least 10,000 events were acquired on a linear scale from each sample. Frequency distributions of DNA content and SSC were analysed for the evaluation of apoptosis at different apoptotic stages and cell cycle phases, as previously described.
(§3) Bone marrow aspirates from patients with different leukaemia types were plated in tissue culture medium supplemented with 20% FCS, treated with 072RB twice every 48 h, and followed for 4 days. They were evaluated by flow cytometry DNA/SSC analysis, In Table 3 we show the percentage of [early + late apoptotic cells], according to leukaemia type and Int or 072RB dosage. To further study sensitivity to 072RB of normal cells, peripheral blood lymphocytes (PBL) isolated from four independent healthy donors were subjected to a four-days treatment with 10 µM 072RB. Treatment was performed, as usual, with two pulses at a 48 h interval. Lymphocytes were either un-stimulated or activated by PHA. […] Comparing treated and untreated normal peripheral lymphocytes, the ratio of viable cells between the two groups was 0.87 ± 0.05 (mean ± SE) for quiescent lymphocytes and 0.82 ± 0.057 for proliferating lymphocytes. This effect of 072RB on normal lymphocytes seems especially small if we consider the effects observed in leukaemia cell lines (see supplementary information), and also the effects observed in AML cells from ex vivo experiments: 0.55 ± 0.145 (mean ± SE). Table 3: Effect of 072RB on haematological malignancies (AML: acute myeloid leukaemia; ALL: acute lymphoid leukaemia; NBM: normal bone marrow): percentage of early/late apoptotic cells. Mean values from duplicate experiments are reported. The difference between the two individual values never exceeded 15% of the mean value. Ex vivo isolated cells were treated with either Int or 072RB at day 0, 2 (5, 10 µM), at day 0, 1, 2, 3 (1, 3 µM) and analysed after PI staining at day 4.

[2] = test system: AML: acute myeloid leukaemia; assay: as above; details: for percentage of early/late apoptotic cells: AML, analysed day 4
Procedure: as §1, §2, §3

NBM: normal bone marrow = assay: as above; details: analysed day 4
Procedure: as §1, §2, §3

[3] = ALL, Pro-B (control 32), 5 µM at day 0, 2
[4] = ALL, Pro-B (control 32), 10 µM at day 0, 2
[5] = FAB M0 (control 33), 5 µM at day 0, 2
[6] = FAB M0 (control 33), 10 µM at day 0, 2
[7] = FAB M3 (control 23), 5 µM at day 0, 2
[8] = FAB M3 (control 23), 10 µM at day 0, 2
[9] = NBM sample with control 15, treated with 15 µM (footnote *), printed in the 10 µM column
[10] = NBM sample with control 39, 10 µM at day 0, 2

Compound	percentage of early/late apoptotic cells [1, 3] [percentage]	percentage of early/late apoptotic cells [1, 4] [percentage]	percentage of early/late apoptotic cells [2, 5] [percentage]	percentage of early/late apoptotic cells [2, 6] [percentage]	percentage of early/late apoptotic cells [2, 7] [percentage]	percentage of early/late apoptotic cells [2, 8] [percentage]	percentage of early/late apoptotic cells (NBM: normal bone marrow; [9])	percentage of early/late apoptotic cells (NBM: normal bone marrow; [10]) [percentage]	further results
CC[C@H](C)[C@H](NC(=O)[C@H](CCCNC(=N)N)NC(=O)[C@H](CCCNC(=N)N)NC(=O)[C@H](CC(C)C)NC(=O)[C@H](CCC(=O)O)NC(=O)[C@H](CCC(N)=O)NC(=O)C(C)(C)NC(=O)[C@@H](NC(=O)[C@H](Cc1ccc(O)cc1)NC(=O)[C@@H](NC(=O)[C@H](CCC(=O)O)NC(=O)[C@@H]1CCCN1C(=O)[C@H](CCCNC(=N)N)NC(=O)[C@H](CCSC)NC(=O)[C@@H](N)CC(=O)O)[C@@H](C)CC)[C@@H](C)CC)C(=O)NCC(=O)N[C@@H](CC(=O)O)C(=O)N[C@@H](C)C(=O)N[C@@H](Cc1ccccc1)C(=O)N[C@@H](CC(N)=O)C(=O)NC(C)(C)C(=O)N[C@@H](Cc1ccc(O)cc1)C(=O)N[C@@H](CCCCN)C(=O)N[C@@H](CCCCN)C(=O)N[C@@H](Cc1c[nH]c2ccccc12)C(=O)N[C@@H](CCCCN)C(=O)N[C@@H](CCSC)C(=O)N[C@@H](CCCNC(=N)N)C(=O)N[C@@H](CCCNC(=N)N)C(=O)N[C@@H](CC(N)=O)C(=O)N1CCC[C@H]1C(=O)N[C@@H](Cc1ccccc1)C(=O)N[C@@H](Cc1c[nH]c2ccccc12)C(=O)N[C@H](C(=O)N[C@@H](CCCCN)C(=O)N[C@H](C(=O)N[C@@H](CCC(N)=O)C(=O)N[C@@H](CCCNC(=N)N)C(N)=O)[C@@H](C)CC)[C@@H](C)CC [Peptide 072RB] (H-DMRPEIYI[Aib]QELRRIGDAFN[Aib]YKKWKMRRNPFWIKIQR-NH2; N-terminus and C-terminus assumed)	56	63	36	42	64	82	21* percentage	39	cell death (alive, early- and late-apoptotic fractions) (tumour cell lines; three tumour cell lines, 5 to 10 µM): Significant cell death; percentage of early/late apoptotic cells ([1]; ALL sample with control 40, 5 µM at day 0, 2): 42 percentage; percentage of early/late apoptotic cells ([1]; ALL sample with control 40, 10 µM at day 0, 2): 45 percentage; percentage of early/late apoptotic cells ([1]; ALL sample with control 43, 5 µM at day 0, 2): 67 percentage; percentage of early/late apoptotic cells ([1]; ALL sample with control 52, 5 µM at day 0, 2): 60 percentage; percentage of early/late apoptotic cells ([1]; ALL sample with control 52, 10 µM at day 0, 2): 80 percentage; ratio of viable cells, treated versus untreated ([2]; AML cells from ex vivo experiments, mean ± SE): 0.55 ± 0.145; percentage of early/late apoptotic cells ([2]; FAB M0-M1 (control 14), 5 µM at day 0, 2): 22 percentage; percentage of early/late apoptotic cells ([2]; FAB M0-M1 (control 14), 10 µM at day 0, 2): 40 percentage; percentage of early/late apoptotic cells ([2]; FAB M2 (control 24), 5 µM at day 0, 2): 66 percentage; percentage of early/late apoptotic cells ([2]; FAB M4-M5 (control 50), 5 µM at day 0, 2): 75 percentage; percentage of early/late apoptotic cells ([2]; FAB M6 (control 15), 10 µM at day 0, 2): 67 percentage
KKWKMRRNPFWIKIQR [Int, internalisation tag, a modified Q50P 16 aa Antennapedia IIIrd α-helix, reference compound]	32	43	32	38	26	28	18* percentage	37	cell death (alive, early- and late-apoptotic fractions) (tumour cell lines; three cancer lines, 10 µM): substantially inactive
